Test system: Clostridium difficile
Assay: Outbreak of Clostridium difficile hemorrhagic diarrhea in newborn foals; probiotic formulation vs standard of care
Type: in vivo
Settings: all animals dosed at birth with 6.6 mg/kg
Procedure: Newborn foals born to mares at a large horse breeding barn were monitored during an outbreak of severe hemorrhagic diarrhea among the foals. […] Seventeen foals were born during the initial phase of the outbreak, of which fifteen animals became ill and required intervention according to the standard of care as described in the Merck Veterinary Manual. Standard of care involved metronidazole treatment given at a dose of 15-20 mg/kg, PO, tid-qid. and may also involve administration of large volumes of interveneous polyionic fluids, with supplemental electrolytes (potassium, magnesium, and calcium), plasma or synthetic colloids for low oncotic pressure, anti-inflammatoires such as flunixin meglumine, and broad-spectrum antibiotics if the horse is leukopenic and at risk of bacterial translocation across the compromised GI tract. Polymyxin B may aid in binding systemic endotoxin.
Of these seventeen foals, fifteen developed loose stool or diarrhea lasting 3-4 days, and 2 died as a result of the infection. After observing the outbreak, the next foals were provided a formulation of 3×10^12 CFU Bifidobacterium longum subsp. infantis EVBL001 and 5×10^9 CFU of Lactobacillus plantarum EVLP001 every 12 hours. The two foals that were provided with the formulation at 12 hours of age developed a mild diarrhea, but recovered within 8 hours compared to 3-4 days with standard of care. […]

CO/N=C(\C(=O)N[C@@H]1C(=O)N2C(C(=O)O)=C(CSC(=O)c3ccco3)CS[C@H]12)c1csc(N)n1 [ceftiofur]
effect on health outcome related to diarrhea: did not affect health outcome

Reference: patent US20250276026A1, “TRANSIENT COMMENSAL MICROORGANISM FOR IMPROVING GUT HEALTH” (INFINANT HEALTH, INC, priority 2016, published 2025)
